The values below are quoted from earlier work in patent US20240335498A1, “COMPOSITION AND METHODS OF TREATMENT USING TRANSDERMAL SUPPLEMENTATION” (Xygenyx Inc., priority 2023, published 2024).

The conditions of series [1]: dietary supplementation, doses up to 400 IU/day.
The subject of another series is F2-isoprostane. The settings on record: large doses of 1600-3200 IU/day.
The conditions of series [2]: compared to α-tocopherol = 1.0.
In series [3] the test system is wide dynamic range neurons in the ventroposterolateral nucleus of the thalamus.
The conditions of series [4]: topical formulations, within four weeks of treatment.
For series [5] the following is noted: even when dietary intake occurs in equal portions.
The conditions of series [6]: penetration enhancer used alone.
For series [7] the following is noted: in vivo.
The conditions of series [8]: topical application, concentrations 0.5-5%.

Square brackets hold non-standard residues; d marks the D form. Peptide text beside a SMILES is read from it. Cit = NC(=O)NCCC[C@H](N)C(=O)O

Turning to `Cc1c(C)c2c(c(C)c1O)CC[C@@](C)(CCC[C@H](C)CCC[C@H](C)CCCC(C)C)O2` [α-tocopherol], in series [1], the “reduction of the risk of coronary disease” value is on record as “up to 34%”. For the same compound, the “reduction of the risk of developing neurodegenerative diseases such as Alzheimer's Syndrome or dementia” value in series [1] (controlled trials) is given as at most 24%. The “blood plasma concentration of F2-isoprostane” value in the series on F2-isoprostane is recorded as “significantly lower”. Moreover, the relative biological activity in series [2] is given as 1.0. For the compound `CCCCCc1cc(O)c2c(c1)OC(C)(C)C1CCC(C)=CC21` (stereo not drawn) [THC, Δ-9-tetrahydrocannabinol], the “power in mediating pain relative to morphine” value in [3] is “ten times more powerful”. For `Cc1cc(O)cc2c1O[C@](C)(CCC[C@H](C)CCC[C@H](C)CCCC(C)C)CC2` [δ-tocopherol], the relative biological activity in series [2] is reported as 0.03. Consider `CC[C@H](C)[C@H](NC(=O)[C@H](CC(=O)O)NC(=O)[C@@H](N)CCCCN)C(=O)N[C@@H](CCCNC(N)=O)C(N)=O` [tripeptide-10 citrulline, Tripeptide-10 citrulline] (H-KDI[Cit]-NH2), for which the improvement of suppleness in series [4] is listed as at most 54%.

For the compound `Cc1c(O)cc2c(c1C)O[C@](C)(CCC[C@H](C)CCC[C@H](C)CCCC(C)C)CC2` [γ-tocopherol], the “concentration in vivo relative to α-tocopherol” value in series [5] is on record as “roughly 10%”. In series [2], the relative biological activity is recorded as 0.1. On to `CC(C)[C@@H]1CC[C@@H](C)C[C@H]1O` [Menthol], for which the “increase of transdermal drug uptake (factor)” value in [6] is at least 10. As for “HGH: hormone comprising a peptide chain that is synthesized in the pituitary gland”, the biological half-life in [7] is 10-20 minutes. Regarding `C/C(=C\CO)CCC[C@H](C)CCC[C@H](C)CCCC(C)C` [phytol, Phytol], the solubility in water result is “nearly insoluble”. Consider `Cc1cc(O)c(C)c2c1O[C@](C)(CCC[C@H](C)CCC[C@H](C)CCCC(C)C)CC2` [β-tocopherol], for which the relative biological activity in series [2] is reported as 0.5. `CC12CCC(CC1)C(C)(C)O2` [eucalyptol, Eucalyptol]: in series [6], the “increase of transdermal drug uptake (factor)” value is reported as “more than 10”.

Consider `C=CCCCCCCCCC(=O)N[C@@H](Cc1ccccc1)C(=O)O` [UP, Undecylenoyl phenylalanine], for which, in [8], the “time to skin lightening effects” value is given as at least 7 days.
